Experiments:
S. pneumoniae D39V [1] = assay: fitness (endpoint OD595 vs no drug) (fraction); higher = more growth
Summary of the method: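 Plates with 384 wells were inoculated at OD595 0.01 using 30 µl of TSB, LB Lennox or CY, or 55 µl for S. pneumoniae. Incubation was at 37 °C, with OD595 measured every 30 min for 14 h. Fitness is the stationary-phase transition optical density over the robust mean of no-drug control wells, after first-reading background subtraction; it is capped at 1.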

B. subtilis 168 = assay: Bliss interaction score (quartile over a dose matrix) (fitness difference); higher = more antagonism (negative = synergy)
Summary of the method: (§1)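 Fitness was defined as normalised growth: OD595 at the start of stationary phase divided by the plate's robust no-drug mean and capped at 1. Single-drug fitness was inferred from combination measurements. The Bliss score is observed fitness minus the product of the single-drug values, summarised by quartiles across technical, biological and donor/recipient replicates.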

S. pneumoniae D39V [2] = assay: as above
Summary of the method: as §1

S. aureus DSM 20231 = assay: as above
Summary of the method: as §1

S. aureus Newman = assay: as above
Summary of the method: as §1
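Wherever Bliss interaction score (quartile over a dose matrix) is given: first quartile when negative (synergy) and third quartile when positive (antagonism).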

CC[C@H]1OC(=O)[C@H](C)[C@@H](O[C@H]2C[C@@](C)(OC)[C@@H](O)[C@H](C)O2)[C@H](C)[C@@H](O[C@@H]2O[C@H](C)C[C@H](N(C)C)[C@H]2O)[C@](C)(OC)C[C@@H](C)C(=O)[C@H](C)[C@@H](O)[C@]1(C)O [Clarithromycin] + Cn1nnc(-c2ccc(-c3ccc(N4C[C@H](CO)OC4=O)cc3F)cn2)n1 [Tedizolid]
fitness, S. pneumoniae D39V [1], one replicate
Conditions | first compound 0.007812 µg/mL | first compound 0.01562 µg/mL | first compound 0.03125 µg/mL
partner 0.125 µg/mL | 0.739 | 0.692 | 0.639
partner 0.25 µg/mL | 0.701 | 0.685 | 0.686
partner 0.5 µg/mL | 0.373 | 0.381 | 0.353

fitness, S. pneumoniae D39V [1]
Conditions | first compound 0.0625 µg/mL | first compound 0.07 µg/mL | first compound 0.125 µg/mL | first compound 0.14 µg/mL | first compound 0.25 µg/mL | first compound 0.28 µg/mL
partner 0.03125 µg/mL | 0.715 | – | 0.544 | – | 0.317 | –
partner 0.0625 µg/mL | 0.727 | – | 0.571 | – | 0.336 | –
partner 0.125 µg/mL | 0.666 | 0.0645 | 0.511 | 0.053 | 0.275 | 0.0588
partner 0.25 µg/mL | – | 0.0475 | – | 0.0527 | – | 0.0319
partner 0.5 µg/mL | – | 0.0477 | – | 0.0537 | – | 0.0347

Conditions | Bliss interaction score
B. subtilis 168 | -0.0452
S. aureus DSM 20231 | -0.109
S. aureus Newman | -0.106
S. pneumoniae D39V [2] | 0.0824

CC[C@H]1OC(=O)[C@H](C)[C@@H](O[C@H]2C[C@@](C)(OC)[C@@H](O)[C@H](C)O2)[C@H](C)[C@@H](O[C@@H]2O[C@H](C)C[C@H](N(C)C)[C@H]2O)[C@](C)(OC)C[C@@H](C)C(=O)[C@H](C)[C@@H](O)[C@]1(C)O [Clarithromycin] + O=C1CN(/N=C/c2ccc([N+](=O)[O-])o2)C(=O)N1 [Nitrofurantoin]
fitness, S. pneumoniae D39V [1], one replicate
Conditions | first compound 0.007812 µg/mL | first compound 0.01562 µg/mL | first compound 0.03125 µg/mL | first compound 0.0625 µg/mL | first compound 0.125 µg/mL | first compound 0.25 µg/mL
partner 2 µg/mL | 0.879 | 0.802 | 0.627 | – | – | –
partner 4 µg/mL | 0.862 | 0.788 | 0.643 | – | – | –
partner 5.14 µg/mL | – | – | – | 0.402 | 0.214 | 0.146
partner 8 µg/mL | 0.744 | 0.678 | 0.556 | – | – | –

fitness, S. pneumoniae D39V [1]
Conditions | first compound 0.0625 µg/mL | first compound 0.07 µg/mL | first compound 0.125 µg/mL | first compound 0.14 µg/mL | first compound 0.25 µg/mL | first compound 0.28 µg/mL
partner 1.285 µg/mL | 0.636 | – | 0.263 | – | 0.104 | –
partner 2 µg/mL | – | 0.0417 | – | 0.0458 | – | 0.0401
partner 2.57 µg/mL | 0.59 | – | 0.199 | – | 0.0984 | –
partner 4 µg/mL | – | 0.0482 | – | 0.0382 | – | 0.0171
partner 8 µg/mL | – | 0.0337 | – | 0.0552 | – | 0.0141

Conditions | Bliss interaction score
B. subtilis 168 | -0.0776
S. aureus DSM 20231 | -0.04
S. aureus Newman | -0.117
S. pneumoniae D39V [2] | -0.0986

CC[C@H]1OC(=O)[C@H](C)[C@@H](O[C@H]2C[C@@](C)(OC)[C@@H](O)[C@H](C)O2)[C@H](C)[C@@H](O[C@@H]2O[C@H](C)C[C@H](N(C)C)[C@H]2O)[C@](C)(OC)C[C@@H](C)C(=O)[C@H](C)[C@@H](O)[C@]1(C)O [Clarithromycin] + O=C(O[C@@H]1Cc2c(O)cc(O)cc2O[C@@H]1c1cc(O)c(O)c(O)c1)c1cc(O)c(O)c(O)c1 [EGCG]
fitness, S. pneumoniae D39V [1], one replicate
Conditions | first compound 0.007812 µg/mL | first compound 0.01562 µg/mL | first compound 0.03125 µg/mL
partner 12.5 µg/mL | 0.808 | 0.8 | 0.635
partner 25 µg/mL | 0.847 | 0.762 | 0.609
partner 50 µg/mL | 0.827 | 0.77 | 0.614

fitness, S. pneumoniae D39V [1]
Conditions | first compound 0.0625 µg/mL | first compound 0.07 µg/mL | first compound 0.125 µg/mL | first compound 0.14 µg/mL | first compound 0.25 µg/mL | first compound 0.28 µg/mL
partner 12.5 µg/mL | 0.457 | 0.123 | 0.241 | 0.0422 | 0.0839 | 0.0515
partner 25 µg/mL | 0.493 | 0.115 | 0.25 | 0.0716 | 0.0874 | 0.0518
partner 50 µg/mL | 0.383 | 0.144 | 0.373 | 0.0769 | 0.122 | 0.0507

Conditions | Bliss interaction score
B. subtilis 168 | 0.0404
S. aureus DSM 20231 | 0.109
S. aureus Newman | 0.132
S. pneumoniae D39V [2] | -0.0473

CCC[C@@H]1C[C@@H](C(=O)N[C@@H]([C@H]2O[C@H](SC)[C@H](O)[C@@H](O)[C@H]2O)[C@H](C)Cl)N(C)C1 [Clindamycin] + CO[C@H]1/C=C/O[C@@]2(C)Oc3c(C)c(O)c4c(O)c(c(/C=N/N5CCN(C)CC5)c(O)c4c3C2=O)NC(=O)/C(C)=C\C=C\[C@H](C)[C@H](O)[C@@H](C)[C@@H](O)[C@@H](C)[C@H](OC(C)=O)[C@@H]1C [Rifampicin]
fitness, S. pneumoniae D39V [1]
Conditions | first compound 0.0125 µg/mL | first compound 0.015 µg/mL | first compound 0.025 µg/mL | first compound 0.03 µg/mL | first compound 0.05 µg/mL | first compound 0.06 µg/mL
partner 0.025 µg/mL | 0.795 | – | 0.539 | – | 0.273 | –
partner 0.05 µg/mL | 0.811 | – | 0.523 | – | 0.215 | 0.226
partner 0.1 µg/mL | 0.341 | 0.267 | 0.223 | 0.212 | 0.15 | 0.164

fitness, S. pneumoniae D39V [1], one replicate
Conditions | first compound 0.015 µg/mL | first compound 0.03 µg/mL | first compound 0.06 µg/mL
partner 0.025 µg/mL | 0.702 | 0.496 | 0.229
partner 0.2 µg/mL | 0 | 0 | 0

Conditions | Bliss interaction score
B. subtilis 168 | -0.223
S. aureus DSM 20231 | 0.027
S. aureus Newman | 0.0465
S. pneumoniae D39V [2] | -0.077

Source: the supplement of paper PMC10627819
